This is an account of results in US20090196924A1 (priority 2008, published 2009).

Values after ≈ are worked out from the molar mass of the structure shown.

Data set [1] can be described thus: Solubility of lamotrigine. It counts as physicochemical. The following applies: all media; slightly pH-dependent, highest in 0.1N HCl.
The conditions of data set [2]: 25° C., cited from earlier work.
The conditions of data set [3]: concomitant valproate (reduces hepatic clearance of lamotrigine), for a given dose; cited from earlier work.

Turning to `Nc1nnc(-c2cccc(Cl)c2Cl)c(N)n1` [Lamotrigine, 3,5-diamino-6-(2,3-dichlorophenyl)-as-triazine], the solubility of lamotrigine result in data set [1] is reported as “moderately high in all media”. Further, the “solubility in 0.1 M HCl” value in data set [2] (0.1 M HCl) was 4100 µg/mL (≈ 16 mM). Besides, in data set [2] (water), the solubility in water is 170 µg/mL (≈ 0.664 mM). Also, the “increase of plasma concentrations of the drug” value in data set [3] is “approximately two-fold”.
